Experimental findings from patent US10278969B2, “Pharmaceutical dosage forms” (Novartis AG, priority 2013, dated 2019) are described below.

The data set can be described thus: Chemical stability: hydrolysis degradation of the Compound on processing. The data set is classed as physicochemical. The conditions noted are these: urea bond cleavage into aniline and aminopyrimidine degradants. From the text: In view of the above mentioned difficulties, the inventors tried to compact the voluminous Compound together with excipients without the use of aqueous media. […] There could be various root causes for the degradation problem. The inventor had run numerous experimental trials to identify the cause.

With `CCN1CCN(c2ccc(Nc3cc(N(C)C(=O)Nc4c(Cl)c(OC)cc(OC)c4Cl)ncn3)cc2)CC1` [the Compound, 3-(2,6-Dichloro-3,5-dimethoxy-phenyl)-1-{6-[4-(4-ethyl-piperazin-1-yl)-phenylamino]-pyrimidin-4-yl}-1-methyl-urea], the “Chemical stability (hydrolysis degradation products)” value is “prone to hydrolysis”.
